Measurements: patent publication US20140295012A1, “LATENT HUMAN IMMUNODEFICIENCY VIRUS REACTIVATION” (priority 2011, published 2014)
Where two headings read alike, the source gives them in different places. Where a SMILES comes first, the peptide text is derived from it. The star is where a group is joined. Cbz = O=C(OCc1ccccc1)*

Assays:
Format in all cases: cell-based
[1] = system: latently HIV-1 infected CA5 T cells; conditions: for priming effect on HIV-1 reactivation by sub-optimal dose of HRF: CA5 cells pretreated with increasing concentrations; for effect of higher concentrations on HIV-1 reactivation triggered by HRF or TNF-α: correlated with high levels of cytotoxicity
Procedure: (§1) Infection levels in the cell cultures were monitored by flow cytometric analysis of EGFP expression. Flow cytometric analysis was performed on a GUAVA EasyCyte (Millipore; Billerica, Mass.), or a LSRII (Becton & Dickinson; Franklin Lakes, N.J.).
Bacterial growth. Bacteria from various sources were isolated on TSA II agar plates containing 5% sheep blood. Bacterial isolates were then grown in RPMI 1640 medium supplemented with 10% FBS. After two days of incubation at 37° C. bacteria were pelleted and resuspended in RPMI medium to an optical density (OD600) of 8, aliquoted and frozen at −80° C. Unless otherwise indicated, Massilia timonae was grown in RPMI 1640 medium supplemented with 10% FBS. Typically, medium was inoculated with Massilia timonae from frozen stocks to an OD600 of 0.01. After 48 hours at 37° C., the culture was centrifuged at 3200 g to separate bacteria from the culture medium. Bacteria were resuspended in fresh medium to an OD600 of 8 and frozen to be used as references and stock cultures. The supernatant was then centrifuged at 10,000 g for 20 minutes and sterilized by passage through a 0.2 μm PVDF filter with low protein binding ability. HRF activity was determined by its ability to reactivate latent HIV-1 infection in CA5 cells. Only supernatants of which 6 μl reactivated infection in at least 60% of CA5 cells were used to study HRF properties.
Flow cytometry. Infection levels in the cell cultures were monitored by flow cytometric (FCM) analysis of GFP expression. FCM analysis was performed on a GUAVA EasyCyte (GUAVA Technologies, Inc.; Millipore; Billerica, Mass.) and a BD FACSCalibur or a LSRII (Becton & Dickinson; Franklin Lakes, N.J.). Cell sorting experiments were performed using a FACSAria™ Flow Cytometer (Becton&Dickinson). Data analysis was performed using either CellQuest (Becton&Dickinson) or GUAVA Express (GUAVA Technologies, Inc.).
To identify the optimal concentration of dactinomycin, CA5 T cells were pretreated with increasing concentrations of dactinomycin (0.0001 and 1 μg/ml), and then left untreated or stimulated with a sub-optimal concentration of HRF or TNF-α. Representative results for stimulation with HRF are depicted in FIG. 3. The chosen HRF concentration has only minimal HIV-1 reactivating effect by itself (15% reactivation over background). Twenty four hours after activator addition, levels of HIV-1 reactivation were determined as the percentage of GFP-positive cells using flow cytometric analysis, which allowed for the simultaneous determination of cell viability. […] Optimal pretreatment time was 18 hours. Maximum reactivation effects were seen 48 hours after stimulation.

[2] = system: latently HIV-1 infected CA5 T cells
HIV-1 LTR = assay: Tat-independent activation of integrated LTR-GFP construct in NOMI reporter T cells; conditions: 24 hours
Procedure: (§2) FIGS. 6A-6C show HRF triggers suboptimal functional induction of NF-κB dependent gene expression. […] The HIV-1 reactivating kinetics were determined by stimulating CA5 T cells with optimal concentrations of HRF, phorbol 12-myristate 13-acetate (PMA) and tumor necrosis factor-α (TNF-α) and analyzing HIV-1 reactivation as a function of EGFP-expression over a period of 48 hours. Data for all agents are depicted as the percentage of EGFP-positive cells in the total cell population. […] To test the ability of HRF to mediate Tat-independent activation of the HIV-1 LTR, NOMI cells (HIV-1 reporter cell line with an integrated LTR-EGFP construct) were stimulated with increasing concentrations of PMA (0.01-10 ng/ml), TNF-α (0.003-30 μg/ml) and HRF supernatant (0.3-100 μl). The level of LTR-induction was then measured as EGFP-expression detectable after 24 hours as determined by flow cytometric analysis. Arrows indicate the concentrations at which the respective stimulus would have triggered full HIV-1 reactivation in the latently HIV-1 infected CA5 T cell line. […] 293T cells were transfected with several NF-κB dependent promoter constructs and then stimulated with either TNF-α (10 μg/ml) or HRF (25 μl). Promoter induction was measured as total EGFP expression. (NF-κB:pNF-κB-d2EGFP; LTR:HIV-1 LTR-GFP; IL-8:pIL-8 GFP; TNF:human TNF-GFP; MSCV:murine stem cell virus LTR driven GFP; no NF-κB responsive elements).
As the NF-κB pathway has been recognized as vital to HIV-1 activation, the ability of HRF to trigger NF-κB activation was investigated. It was initially determined that HRF had the ability to stimulate Tat independent activation of an integrated LTR-GFP construct in NOMI reporter T cells.

[3] = system: latently HIV-1 infected J89GFP T cells; assay: HIV-1 reactivation / priming in latently HIV-1 infected J89GFP T cells (GFP, flow cytometry, HTS); conditions: 10 ng/ml PMA; three J89GFP populations
Procedure: Flow cytometry. Infection levels in the cell cultures were monitored by flow cytometric (FCM) analysis of GFP expression. […] Cell sorting experiments were performed using a FACSAria™ Flow Cytometer (Becton&Dickinson). Data analysis was performed using either CellQuest (Becton&Dickinson) or GUAVA Express (GUAVA Technologies, Inc.).

[4] = system: chronically actively infected T cell lines (JNLG#35 and JNLG#44); assay: Active HIV-1 transcription in chronically actively infected T cell lines JNLG#35 and JNLG#44 (GFP MCF); conditions: 48 hours
Procedure: Changes in HIV-1 transcription levels were determined after 48 hours by measuring GFP mean channel fluorescence intensity (GFP MCF). GFP MCF was plotted over the drug concentration for dactinomycin (FIG. 12A), the DNA intercalators daunorubicin (DM) (FIG. 12B) and rebeccamycin (RM) (FIG. 12C), as well as the transcription inhibitors ICRF-193 (FIG. 12D), DRB (FIG. 12E) and α-amanitin (FIG. 12F). The size of symbols indicates the respective cell viability in the sample (size range adjusted to 5-95%).
For this purpose, each of the compounds was titrated over a relevant range of concentrations on two chronically actively infected T cell lines (JNLG#35 and JNLG#44). These clonal cell lines are infected with a GFP-reporter virus. Forty eight hours after addition of the compounds, the effect of each compound on HIV-1 transcription was determined by flow cytometric analysis quantifying GFP mean channel fluorescence intensity (MCF).

[5] = system: NF-κB dependent promoters in 293T cells; assay: NF-κB dependent promoter constructs transfected into 293T cells (EGFP expression)
Procedure: as §2
The utilized EGFP reporter virus HIV-1 NLENG1-IRES has been described elsewhere (Kutsch et al., J. Virol. 76:8776-86 (2002); Levy et al., Proc. Natl. Acad. Sci. USA 101:4204-9 (2004)). The reporter plasmid pNF-κB-d2EGFP was purchased from Clontech (Mountain View, Calif.). The LTR-GFP construct and the IL-8 reporter construct have been described earlier (Choi et al., Mol. Cell. Biol. 22:724-36 (2002)). The TNF-promoter construct was generated by cloning the human TNF-α promoter element defined by primer pair 5′-BglII; 5′-[…] […]-3′ (SEQ ID NO:2) and 3′-AgeI; 5′-[…] […]-3′ (SEQ ID NO:3) into pd2EGFP (Clontech). MSCV-GFP was generated by cloning the EGFP-gene into retroviral pMSCV-puro vector (Clontech).

[6] = system: latently HIV-1 infected reporter T cell lines; conditions: four latently infected reporter T cell lines; culture supernatant
Procedure: FIGS. 1A and 1B show culture supernatants from Massilia timonae reactivate latent HIV-1 infection. […] Untreated control cells and HRF-treated cells were subjected to flow cytometric analysis to determine enhanced green fluorescent protein (EGFP) expression as a direct and quantitative marker of HIV-1 expression 24 hours post stimulation. FSC/SSC dot plots are represented to evaluate cell viability as a function of changes in the FSC (cell size)-SSC (granularity) phenotype of the cells. FIG. 1B is a histogram showing the reproducibility of the observed HIV-1 reactivation. Three independent preparations of HRF (batches HRF1-3) on four different latently infected T cell lines (5F3, 8E12, CA5 and 12D4) were tested. The percentage of EGFP positive cells following stimulation is depicted in the histogram. Cell culture supernatants of Pseudomonas aeruginosa cultures, grown under similar conditions, were used as specificity controls.
as §1

[7] = system: latently HIV-1 infected monocytic THP89GFP cells; assay: HIV-1 reactivation in latently infected monocytic THP89GFP cells

Compound: CC[C@H](C)[C@@H]1NC(=O)CNC(=O)[C@@H]2Cc3c([nH]c4cc(O)ccc34)[S+]([O-])C[C@@H](NC(=O)CNC1=O)C(=O)N[C@@H](CC(N)=O)C(=O)N1C[C@H](O)C[C@H]1C(=O)N[C@@H]([C@@H](C)[C@@H](O)CO)C(=O)N2 (stereo in doubt) [α-amanitin]
- priming effect on HIV-1 reactivation by sub-optimal dose of HRF [1]: None of the inhibitors exerted a priming effect
- priming effect on HIV-1 reactivation by sub-optimal dose of HRF ([1]; listed as α-aminitin): did not exhibit any priming effect
- effect of higher concentrations on HIV-1 reactivation triggered by HRF or TNF-α [1]: inhibit HIV-1 reactivation

Compound: OC[C@H]1O[C@@H](n2cnc3cc(Cl)c(Cl)cc32)[C@H](O)[C@@H]1O [DRB, 5,6 dichloro-beta-D-ribofuranosylbenzimidazole]
- effect of higher concentrations on HIV-1 reactivation triggered by HRF or TNF-α [1]: inhibit HIV-1 reactivation

Compound: CC(=O)NCCCCCCNC(C)=O [HMBA, Hexamethylene bisacetamide]
- HIV-1 reactivation (cells) ([2]; 3 mM): 15%
- HIV-1 reactivation (cells) ([2]; 9 mM): 35%
- compound toxicity ([2]; 9 mM): onset of compound toxicity
- HIV-1 reactivation levels ([2]; HMBA alone, overall): < 40%
- reactivation ([2]; combination of HMBA and TNF-α): 81%
- reactivation ([2]; optimal dose of HMBA alone): 27%
- priming for full reactivation by sub-optimal TNF-α ([2]; sub-toxic concentrations): relatively potent at priming latent HIV-1 infection
- optimal concentration as HIV-1 priming agent prior to onset of drug mediated toxicities [1]: 3 to 10 mM

Compound: CC(C)C[C@@H](C=O)NC(=O)[C@H](CC(C)C)NC(=O)[C@H](CC(C)C)NC(=O)OCc1ccccc1 [MG132] (Cbz-Leu-Leu-Leu-aldehyde)
- priming effect on HIV-1 reactivation by sub-optimal dose of HRF [1]: did not exhibit any priming effect

Compound: CCCCCCCCCCCCCC(=O)O[C@@H]1[C@@H](C)[C@@]2(O)[C@@H](C=C(CO)C[C@]3(O)C(=O)C(C)=C[C@@H]23)[C@@H]2C(C)(C)[C@]12OC(C)=O [PMA, phorbol 12-myristate 13-acetate]
- Tat-independent activation of integrated LTR-GFP construct (GFP expression) (HIV-1 LTR): stimulated Tat-independent activation
- Maximum achievable HIV-1 reactivation levels [3]: 90±3%

Compound: C=C(c1ccc(C(=O)O)cc1)c1cc2c(cc1C)C(C)(C)CCC2(C)C [bexarotene]
- effect with bryostatin on latent HIV-1 infection ([2]; bexarotene overnight pretreatment, CA5 T cells): synergistic effect
- priming of latent HIV-1 infection for reactivation by a second stimulus ([2]; pretreatment 2 hours or overnight): primed latent HIV-1 infection for reactivation by a second stimulus in a synergistic manner

Compound: CC[C@@]1(O)C(=O)OCc2c1cc1n(c2=O)Cc2cc3ccccc3nc2-1 [camptothecin]
- priming effect on HIV-1 reactivation by sub-optimal dose of HRF [1]: None of the inhibitors exerted a priming effect

Compound: COc1cccc2c1C(=O)c1c(O)c3c(c(O)c1C2=O)C[C@@](O)(C(C)=O)C[C@@H]3O[C@H]1C[C@H](N)[C@H](O)[C@H](C)O1 [daunorubicin]
- effect on active HIV-1 infection / transcription (GFP MCF) [4]: boosted active HIV-1 transcription
- priming effect on HIV-1 reactivation by sub-optimal dose of HRF [1]: not reproduced
- priming effect on HIV-1 reactivation by sub-optimal dose of HRF ([1]; listed as Dauno): did not exhibit any priming effect

Compound: O=C1[O][Pt]2([NH][C@@H]3CCCC[C@H]3[NH]2)[O]C1=O [oxaliplatin]
- priming effect on HIV-1 reactivation by sub-optimal dose of HRF [1]: not reproduced

Compound: CC(=O)O[C@@]12C[C@@H](C)[C@@]3(O)[C@@H](C=C(CO)C[C@]4(O)C(=O)C(C)=C[C@@H]34)[C@@H]1C2(C)C [prostratin]
- interaction with bexarotene [2]: interact with bexarotene to reactivate latent HIV-1 infection

Compound: CO[C@H]1[C@H](O)[C@@H](O)[C@H](n2c3c(Cl)cccc3c3c4c(c5c6cccc(Cl)c6[nH]c5c32)C(=O)NC4=O)O[C@@H]1CO [rebeccamycin]
- effect on active HIV-1 infection / transcription (GFP MCF) [4]: boosted active HIV-1 transcription
- priming effect on HIV-1 reactivation by sub-optimal dose of HRF [1]: not reproduced

Compound: TNF-α
- Tat-independent activation of integrated LTR-GFP construct (GFP expression) (HIV-1 LTR): stimulated Tat-independent activation
- GFP expression driven by NF-κB responsive promoter constructs (IL-8, TNF-α, HIV-1 LTR, three consensus NF-κB sites) [5]: efficiently induced
- GFP expression of construct under control of murine stem cell virus LTR (no NF-κB responsive element) [5]: Neither TNF-α nor HRF influenced GFP expression
- reactivation ([1]; sub-optimal dose of TNF-α alone): 32%

Compound: lipopolysaccharide
- HIV-1 reactivation [6]: only reactivated HIV-1 infection in the latently HIV-1 infected monocytic THP89GFP cells
- HIV-1 reactivation [7]: reactivated HIV-1 infection
